Data reported in ChEMBL document CHEMBL1127235, “1,1-diphenyl-3-dialkylamino-1-silacyclopentane derivatives: A new class of potent and selective 5-HT2A antagonists” (Bioorg Med Chem Lett, 1994).

What was measured:
Rattus norvegicus [1] = test: In vivo inhibitory activity against mescaline-induced head twitches of rat after pretreatment for 1 hour upon subcutaneous administration; assay type: functional
Mus musculus [2] = test: In vivo inhibitory activity against DOI-induced head twitches of mice after pretreatment for 1 hour upon subcutaneous administration; assay type: functional
Mus musculus [3] = test: In vivo inhibitory activity against DOI-induced head twitches of mice after pretreatment for 15 hours upon peroral administration; assay type: functional
[4] = target: 5-hydroxytryptamine receptor 2A (Rattus norvegicus, UniProt P14842); test: In vitro binding affinity towards serotonin 5-HT2A receptor in rat cortical membranes using [3H]ketanserin as radioligand; assay type: cell membranes
Chain of 5-hydroxytryptamine receptor 2A (P14842 whole entry): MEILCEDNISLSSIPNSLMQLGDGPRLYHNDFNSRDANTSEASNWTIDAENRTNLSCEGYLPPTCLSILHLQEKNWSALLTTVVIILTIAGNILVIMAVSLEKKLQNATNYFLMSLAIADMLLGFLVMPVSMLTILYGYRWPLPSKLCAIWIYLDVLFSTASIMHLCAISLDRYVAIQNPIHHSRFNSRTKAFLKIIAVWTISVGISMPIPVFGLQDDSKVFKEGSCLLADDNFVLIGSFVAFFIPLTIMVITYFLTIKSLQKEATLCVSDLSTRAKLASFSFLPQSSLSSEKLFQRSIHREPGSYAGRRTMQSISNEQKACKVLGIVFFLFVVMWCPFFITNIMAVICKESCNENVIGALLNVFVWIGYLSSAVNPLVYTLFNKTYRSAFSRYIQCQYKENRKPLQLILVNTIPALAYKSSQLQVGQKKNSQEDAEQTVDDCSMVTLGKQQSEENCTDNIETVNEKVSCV

Rattus norvegicus [5] = test: In vivo inhibitory activity against mescaline-induced head twitches of rat after pretreatment for 1 hour upon peroral administration; assay type: functional
Mus musculus [6] = test: In vivo inhibitory activity against mescaline-induced head twitches of mice after pretreatment for 15 hours upon peroral administration; assay type: functional; settings: po
Mus musculus [7] = test: In vivo inhibitory activity against mescaline-induced head twitches of mice after pretreatment for 1 hour upon subcutaneous administration; assay type: functional; settings: sc
Rattus norvegicus [8] = test: In vivo inhibitory activity against mescaline-induced head twitches of rat after pretreatment for 16 hours upon peroral administration; assay type: functional
Rattus norvegicus [9] = test: In vivo inhibitory activity against mescaline-induced head twitches of rat after pretreatment for 6 hours upon peroral administration; assay type: functional
[10] = target: T1, Adrenergic receptor alpha-1 (Homo sapiens, UniProt P35348+P25100+P35368); test: Binding affinity towards Alpha-1 adrenergic receptor; assay type: protein assay
T1 sequence (P35348 whole entry): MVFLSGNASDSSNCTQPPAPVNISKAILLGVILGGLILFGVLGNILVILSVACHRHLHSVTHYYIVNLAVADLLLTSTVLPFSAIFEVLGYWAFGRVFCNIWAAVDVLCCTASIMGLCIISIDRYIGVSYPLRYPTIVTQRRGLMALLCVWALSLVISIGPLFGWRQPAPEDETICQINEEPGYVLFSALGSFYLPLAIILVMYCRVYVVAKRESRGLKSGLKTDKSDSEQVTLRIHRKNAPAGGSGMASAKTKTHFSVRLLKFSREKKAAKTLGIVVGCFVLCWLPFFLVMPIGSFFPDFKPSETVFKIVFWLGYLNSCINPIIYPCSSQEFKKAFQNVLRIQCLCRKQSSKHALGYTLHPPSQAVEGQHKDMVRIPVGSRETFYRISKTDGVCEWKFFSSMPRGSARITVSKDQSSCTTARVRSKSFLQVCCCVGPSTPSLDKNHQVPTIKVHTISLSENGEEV
T1 sequence (P25100 whole entry): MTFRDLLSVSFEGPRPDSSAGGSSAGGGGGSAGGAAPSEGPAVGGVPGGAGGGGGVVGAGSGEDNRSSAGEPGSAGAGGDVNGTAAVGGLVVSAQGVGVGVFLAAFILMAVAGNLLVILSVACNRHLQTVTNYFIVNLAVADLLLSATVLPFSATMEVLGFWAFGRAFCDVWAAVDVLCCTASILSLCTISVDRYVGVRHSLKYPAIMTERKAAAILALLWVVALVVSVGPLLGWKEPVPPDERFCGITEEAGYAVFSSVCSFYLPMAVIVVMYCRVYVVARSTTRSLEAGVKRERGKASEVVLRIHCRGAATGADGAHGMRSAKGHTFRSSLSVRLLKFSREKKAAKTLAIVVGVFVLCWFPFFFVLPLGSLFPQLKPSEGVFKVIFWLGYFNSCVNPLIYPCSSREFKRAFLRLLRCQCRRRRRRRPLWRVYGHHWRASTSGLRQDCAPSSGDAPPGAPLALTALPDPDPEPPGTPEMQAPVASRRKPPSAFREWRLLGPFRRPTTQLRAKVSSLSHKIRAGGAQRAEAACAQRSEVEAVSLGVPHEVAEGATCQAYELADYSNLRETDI
T1 sequence (P35368 whole entry): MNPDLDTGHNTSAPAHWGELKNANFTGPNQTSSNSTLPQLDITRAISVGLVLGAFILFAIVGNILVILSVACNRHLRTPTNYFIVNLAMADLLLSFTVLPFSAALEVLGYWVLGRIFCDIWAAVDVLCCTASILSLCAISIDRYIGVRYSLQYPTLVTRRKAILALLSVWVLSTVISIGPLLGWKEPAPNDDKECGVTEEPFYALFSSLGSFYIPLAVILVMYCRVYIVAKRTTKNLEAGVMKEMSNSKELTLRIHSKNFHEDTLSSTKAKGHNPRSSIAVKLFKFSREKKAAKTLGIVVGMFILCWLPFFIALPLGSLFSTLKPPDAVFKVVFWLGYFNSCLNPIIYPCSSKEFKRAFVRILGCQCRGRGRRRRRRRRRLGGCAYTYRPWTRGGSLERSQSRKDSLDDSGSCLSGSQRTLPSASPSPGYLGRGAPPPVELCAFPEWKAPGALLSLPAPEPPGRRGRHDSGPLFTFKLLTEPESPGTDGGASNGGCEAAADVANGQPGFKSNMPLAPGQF

Histamine H1 receptor = Histamine H1 receptor (Homo sapiens, UniProt P35367); test: Binding affinity towards histamine H1 receptor
Chain of Histamine H1 receptor (P35367 whole entry): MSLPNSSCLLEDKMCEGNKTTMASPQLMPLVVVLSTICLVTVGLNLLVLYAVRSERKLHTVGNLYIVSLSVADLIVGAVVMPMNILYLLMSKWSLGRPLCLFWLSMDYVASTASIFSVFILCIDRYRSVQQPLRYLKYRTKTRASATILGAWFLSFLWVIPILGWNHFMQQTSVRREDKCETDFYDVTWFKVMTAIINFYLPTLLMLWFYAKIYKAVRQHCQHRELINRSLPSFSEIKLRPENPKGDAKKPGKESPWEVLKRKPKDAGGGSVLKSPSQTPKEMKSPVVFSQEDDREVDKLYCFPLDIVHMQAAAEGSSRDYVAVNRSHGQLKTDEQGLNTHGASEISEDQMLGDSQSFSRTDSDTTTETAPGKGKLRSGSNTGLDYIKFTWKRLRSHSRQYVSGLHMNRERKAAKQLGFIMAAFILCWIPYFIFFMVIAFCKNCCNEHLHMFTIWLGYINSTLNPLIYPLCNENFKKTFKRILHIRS

D(2) dopamine receptor = D(2) dopamine receptor (Homo sapiens, UniProt P14416); test: Binding affinity towards dopamine D2 receptor
Chain of D(2) dopamine receptor (P14416 whole entry): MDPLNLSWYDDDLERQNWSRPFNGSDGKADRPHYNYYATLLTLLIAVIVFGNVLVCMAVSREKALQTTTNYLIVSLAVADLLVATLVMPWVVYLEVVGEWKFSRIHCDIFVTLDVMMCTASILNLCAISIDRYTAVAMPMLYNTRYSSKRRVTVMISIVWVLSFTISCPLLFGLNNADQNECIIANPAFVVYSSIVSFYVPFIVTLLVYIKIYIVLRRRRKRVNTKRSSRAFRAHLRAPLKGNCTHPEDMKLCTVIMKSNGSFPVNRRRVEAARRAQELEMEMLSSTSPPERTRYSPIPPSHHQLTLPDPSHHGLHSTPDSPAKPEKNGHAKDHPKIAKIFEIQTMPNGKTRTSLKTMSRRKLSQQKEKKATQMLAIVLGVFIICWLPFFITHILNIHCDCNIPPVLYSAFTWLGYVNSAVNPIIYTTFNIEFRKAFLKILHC

[11] = target: T2, Muscarinic acetylcholine receptor M4 (Homo sapiens, UniProt P08173); test: Binding affinity towards muscarinic receptor
T2 sequence (P08173 whole entry): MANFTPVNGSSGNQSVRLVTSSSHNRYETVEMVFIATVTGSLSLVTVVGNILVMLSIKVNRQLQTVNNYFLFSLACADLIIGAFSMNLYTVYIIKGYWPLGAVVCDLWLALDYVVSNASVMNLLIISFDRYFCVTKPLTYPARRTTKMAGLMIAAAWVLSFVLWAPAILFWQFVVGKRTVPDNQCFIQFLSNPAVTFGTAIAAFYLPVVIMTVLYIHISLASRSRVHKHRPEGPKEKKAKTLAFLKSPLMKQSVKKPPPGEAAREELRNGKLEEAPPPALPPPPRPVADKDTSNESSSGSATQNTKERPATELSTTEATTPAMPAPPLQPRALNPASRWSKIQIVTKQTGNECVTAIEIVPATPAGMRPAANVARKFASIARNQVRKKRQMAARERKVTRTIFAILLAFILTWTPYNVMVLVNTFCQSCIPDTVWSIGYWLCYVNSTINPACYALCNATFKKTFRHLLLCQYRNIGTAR

[12] = Rattus norvegicus, po, read-out: ED50

## Fc1ccc([Si]2(c3ccc(F)cc3)CCC(N3CCN(c4ccccc4)CC3)C2)cc1 (single isomer, unassigned; (-))
Rattus norvegicus [1]
  ED50: 10.25 mg/kg
Mus musculus [2]
  ED50: >5 mg/kg
Mus musculus [3]
  ED50: 10.5 mg/kg
[4]
  IC50: 0.025 µM
Rattus norvegicus [5]
  ED50: 10.25 mg/kg

## Fc1ccc(N2CCN(C3CC[Si](c4ccccc4)(c4ccccc4)C3)CC2)cc1 (stereo unspecified)
[4]
  IC50: 0.0009 µM
Mus musculus [6]
  ED50: 15 mg/kg
Mus musculus [7]
  ED50: 10 mg/kg

## Fc1ccc([Si]2(c3ccc(F)cc3)CCC(N3CCN(c4ccccc4)CC3)C2)cc1 (racemic)
Rattus norvegicus [8]
  ED50: 1.25 mg/kg
Rattus norvegicus [1]
  ED50: 10 mg/kg
Mus musculus [2]
  ED50: 0.73 mg/kg
Rattus norvegicus [9]
  ED50: 0.48 mg/kg
Mus musculus [3]
  ED50: 0.59 mg/kg
[10]
  IC50: 0.086 µM
[4]
  IC50: 0.002 µM
Histamine H1 receptor
  IC50: > 1 µM
Mus musculus [6]
  ED50: 0.44 mg/kg
Rattus norvegicus [5]
  ED50: 1.93 mg/kg
Mus musculus [7]
  ED50: 1.38 mg/kg
D(2) dopamine receptor
  IC50: 0.14 µM
[11]
  IC50: > 1 µM

## Cc1cccc(N2CCN(C3CC[Si](c4ccccc4)(c4ccccc4)C3)CC2)c1 (stereo unspecified)
[4]
  IC50: 0.033 µM

## Fc1ccc([Si]2(c3ccc(F)cc3)CCC(N3CCN(c4ccccc4)CC3)C2)cc1 (stereo in doubt)
[4]
  IC50: 0.016 µM

## c1ccc([Si]2(c3ccccc3)CCC(N3CCN(c4ncccn4)CC3)C2)cc1 (stereo unspecified)
[4]
  IC50: 0.08 µM

## c1ccc([Si]2(c3ccccc3)CCC(N3CCN(c4ccccn4)CC3)C2)cc1 (stereo unspecified)
[4]
  IC50: 0.029 µM

## Fc1ccc(C2=CCN(C3CC[Si](c4ccccc4)(c4ccccc4)C3)CC2)cc1 (stereo unspecified)
[4]
  IC50: 0.014 µM

## Oc1ccc(N2CCN(C3CC[Si](c4ccccc4)(c4ccccc4)C3)CC2)cc1 (stereo unspecified)
[4]
  IC50: 0.046 µM

## Fc1ccc([Si]2(c3ccc(F)cc3)CCC(N3CCN(c4ccccc4)CC3)C2)cc1 (single isomer, unassigned; (+))
Rattus norvegicus [8]; [12]
  ED50: < 2.5 mg/kg
Rattus norvegicus [1]
  ED50: 1.56 mg/kg
Mus musculus [2]
  ED50: 0.59 mg/kg
Rattus norvegicus [9]; [12]
  ED50: < 0.63 mg/kg
Mus musculus [3]
  ED50: 0.62 mg/kg
[10]
  IC50: 0.1 µM
[4]
  IC50: 0.003 µM
Histamine H1 receptor
  IC50: > 1 µM
Rattus norvegicus [5]
  ED50: 2.03 mg/kg
D(2) dopamine receptor
  IC50: 0.1 µM
[11]
  IC50: > 1 µM

## Fc1ccc([Si]2(c3ccccc3)CCC(N3CCN(c4ccccc4)CC3)C2)cc1 (single isomer, unassigned)
[4]
  IC50: 0.02 µM

## Cc1nc2sccn2c(=O)c1CCN1CCC(=C(c2ccc(F)cc2)c2ccc(F)cc2)CC1 [RITANSERIN]
Rattus norvegicus [8]; [12]
  ED50: 18.1 mg/kg
Rattus norvegicus [1]; Rattus norvegicus, sc, read-out: ED50
  ED50: 0.38 mg/kg
Mus musculus [2]; Mus musculus, sc, read-out: ED50
  ED50: 0.05 mg/kg
Mus musculus [3]; Mus musculus, po, read-out: ED50
  ED50: 0.08 mg/kg
Mus musculus [6]
  ED50: 0.09 mg/kg
Mus musculus [7]
  ED50: 0.29 mg/kg

## Clc1ccc(N2CCN(C3CC[Si](c4ccccc4)(c4ccccc4)C3)CC2)cc1 (stereo unspecified)
[4]
  IC50: 0.025 µM

## Cc1ccc(N2CCN(C3CC[Si](c4ccccc4)(c4ccccc4)C3)CC2)cc1 (stereo unspecified)
[4]
  IC50: 0.01 µM

## Fc1ccc([Si]2(c3ccccc3)CCC(N3CCN(c4ccccc4)CC3)C2)cc1 (stereo in doubt)
[4]
  IC50: 0.027 µM

## c1ccc(N2CCN(C3CC[Si](c4ccccc4)(c4ccccc4)C3)CC2)cc1 (stereo unspecified)
[4]
  IC50: 0.001 µM
Mus musculus [6]
  ED50: 45 mg/kg
Rattus norvegicus [5]; [12]
  ED50: 84 mg/kg
Mus musculus [7]
  ED50: 68 mg/kg

## Fc1cccc(N2CCN(C3CC[Si](c4ccccc4)(c4ccccc4)C3)CC2)c1 (stereo unspecified)
[4]
  IC50: 0.0034 µM

## c1ccc(C2CCN(C3CC[Si](c4ccccc4)(c4ccccc4)C3)CC2)cc1 (stereo unspecified)
[4]
  IC50: 0.053 µM

## Fc1ccccc1N1CCN(C2CC[Si](c3ccccc3)(c3ccccc3)C2)CC1 (stereo unspecified)
[4]
  IC50: 0.1 µM

## Fc1ccc(N2CCN(C3CC[Si](c4ccc(F)cc4)(c4ccc(F)cc4)C3)CC2)cc1 (stereo unspecified)
[4]
  IC50: 0.018 µM
